Results reported in patent US9963703B2, “Compositions and methods for treating pancreatic cancer” (Autotelic LLC, priority 2016, dated 2018).
In the oligonucleotide strings, read from the 5' end, every base follows the letter of its sugar. An asterisk marks phosphorothioate; unmarked linkages are phosphodiester. Other units and linkages are bracketed, terminal groups are in braces. A string of capitals states the bases alone. d = 2'-deoxy (DNA)

Tested on: Patients With Advanced Tumors Known to Overproduce TGFβ2
Test: Phase I/II dose escalation study P-001, safety (MTD, DLT, adverse events)
Assay type: in vivo, human
Protocol: Over-expression of transforming growth factor-beta 2 (TGF-β2) is associated with poor prognosis and plays a key role for malignant progression of various tumors by inducing proliferation, metastasis, angiogenesis and immunosuppression. P-001 trial of trabedersen-Safety and Tolerability of AP 12009 (trabedersen), Administered I.V. in Patients With Advanced Tumors Known to Overproduce TGFβ2, was evaluated to determine if treatment with trabedersen primed the tumors to subsequent chemotherapy.
In the instant study, the primary objective was to determine the Maximum Tolerated Dose (MTD) and the Dose Limited Toxicity (DLT) of two cycles of trabedersen administered intravenously (i.v.) for either 7 days every other week (i.e. 7 days on/7 days off) or for 4 days every other week (4 days on/10 days off). The secondary objective included assessment of antitumor activity of trabedersen administered intravenously for either 7 days every other week (i.e. 7 days on/7 days off) or for 4 days every other week (4 days on/10 days off).
The escalation scheme of this study aimed to determinate the MTD of two cycles of trabedersen (so called ‘core study period’) administered as a continuous i.v. infusion for 7 days every other week (7-days-on/7-days-off) or for 4 days every other week (4-days-on/10-days-off).
In general, it was planned to enroll a cohort of at least 3 evaluable patients per treatment group. For each cohort, the safety data obtained until end of the core study period (period for DLT-assessment, Cycle 1 and Cycle 2) were assessed in an interim analysis and evaluated by a Data and Safety Monitoring Board (DSMB). […] If 2 of these 3 patients experienced a DLT, the number of evaluable patients for the subsequent treatment group was increased to 6 for further evaluation of toxicity. Patients who were withdrawn from the study due to adverse events (AEs) attributed to DLT by the treating clinician, were not replaced but were used to determine the MTD and to evaluate the safety of the study drug. If patients were withdrawn due to other reasons, they were replaced until the treatment group was complete.
The MTD was determined according to the following procedure: If 2 out of 3 patients of 1 cohort experienced a DLT, 3 more patients were enrolled in the same treatment group. If at least 1 of these additional 3 patients also met the toxicity criteria for a DLT, the MTD for two cycles was determined; otherwise the dose escalation was continued upon agreement with the DSMB. MTD for two cycles was then defined as the dose at which no more than 2 out of 3, or 2 out of 6 patients of the same treatment group experienced a DLT. This procedure was followed until the MTD was reached.
The safety population comprised of 61 patients, representing all patients for whom at least once a trabedersen infusion was started. According to the protocol, the MTD was determined according to the following procedure: if […] out of 3 patients of one cohort experience dose-limiting toxicity, 3 more patients were enrolled in the same treatment group. If at least 1 more patient of this second cohort met the toxicity criteria, MTD for two cycles has been determined (otherwise escalation was continued). MTD for two cycles was then defined as the dose at which no more than 2 out of 3 or 2 out of 6 patients of the same treatment group experienced DLT. […] In the case that 2 patients of the first cohort experienced DLTs that clearly indicated attainment of the MTD, the second cohort could also be omitted. The described procedure was pursued until the MTD is reached.

[1] = 240 mg/m^2/day, 7-days-on and 7-days-off schedule
[2] = 4-days-on and 10-days-off schedule
[3] = 4-days-on, 10-days off schedule (N = 44)
[4] = 7-days-on and 7-days-off schedule
[5] = 7-days-on, 7-days off schedule (N = 17)

trabedersen: TGF-beta2 specific phosphorothioate antisense oligodeoxynucleotide with the sequence 5′-CGGCATGTCTATTTTGTA-3′ (SEQ ID No: 1) (antisense dC*dG*dG*dC*dA*dT*dG*dT*dC*dT*dA*dT*dT*dT*dT*dG*dT*dA)
dose-limiting toxicity observed (140 mg/m^2/day, 4-days-on and 10-days-off schedule, one patient): Grade 3 upper gastrointestinal hemorrhage | DLT: cases of Grade 3 maculopapular rash [1]: 1 | DLT: cases of Grade 3 thrombocytopenia [1]: 2 | number of patients who experienced a DLT [1]: 3 | patients with TEAEs that led to treatment discontinuation, % [2]: 15.9% | patients with TEAEs that led to treatment discontinuation, number [2]: 7 | MTD (4-days-on and 10-days-off schedule, no MTD established, highest dose tested): > 330 mg/m^2/day | Any SAE: % of patients with SAE [3]: 40.9% | Any SAE: No. of SAEs [3]: 28 | Any SAE: No. of patients with SAE [3]: 18 | Ascites: No. of patients with SAE [3]: 0 | Cancer Pain: % of patients with SAE [3]: 4.5% | Cancer Pain: No. of SAEs [3]: 2 | Cancer Pain: No. of patients with SAE [3]: 2 | Catheter related Infection: % of patients with SAE [3]: 2.3% | Catheter related Infection: No. of SAEs [3]: 1 | Catheter related Infection: No. of patients with SAE [3]: 1 | Cholangitis: % of patients with SAE [3]: 6.8% | Cholangitis: No. of SAEs [3]: 3 | Cholangitis: No. of patients with SAE [3]: 3 | Cholestasis: % of patients with SAE [3]: 2.3% | Cholestasis: No. of SAEs [3]: 1 | Cholestasis: No. of patients with SAE [3]: 1 | GI hemorrhage: % of patients with SAE [3]: 2.3% | GI hemorrhage: No. of SAEs [3]: 2 | GI hemorrhage: No. of patients with SAE [3]: 1 | Pneumonia: No. of patients with SAE [3]: 0 | Upper GI hemorrhage: % of patients with SAE [3]: 2.3% | Upper GI hemorrhage: No. of SAEs [3]: 1 | Upper GI hemorrhage: No. of patients with SAE [3]: 1 | MTD [4]: 160 mg/m^2/day | patients with TEAEs that led to treatment discontinuation, % [4]: 41.2% | patients with TEAEs that led to treatment discontinuation, number [4]: 7 | Any SAE: % of patients with SAE [5]: 70.6% | Any SAE: No. of SAEs [5]: 28 | Any SAE: No. of patients with SAE [5]: 12 | Ascites: % of patients with SAE [5]: 17.6% | Ascites: No. of SAEs [5]: 3 | Ascites: No. of patients with SAE [5]: 3 | Cancer Pain: No. of patients with SAE [5]: 0 | Catheter related Infection: % of patients with SAE [5]: 11.8% | Catheter related Infection: No. of SAEs [5]: 2 | Catheter related Infection: No. of patients with SAE [5]: 2 | Cholangitis: % of patients with SAE [5]: 5.9% | Cholangitis: No. of SAEs [5]: 1 | Cholangitis: No. of patients with SAE [5]: 1 | Cholestasis: % of patients with SAE [5]: 5.9% | Cholestasis: No. of SAEs [5]: 1 | Cholestasis: No. of patients with SAE [5]: 1 | GI hemorrhage: % of patients with SAE [5]: 11.8% | GI hemorrhage: No. of SAEs [5]: 3 | GI hemorrhage: No. of patients with SAE [5]: 2 | Pneumonia: % of patients with SAE [5]: 17.6% | Pneumonia: No. of SAEs [5]: 3 | Pneumonia: No. of patients with SAE [5]: 3 | Upper GI hemorrhage: % of patients with SAE [5]: 5.9% | Upper GI hemorrhage: No. of SAEs [5]: 1 | Upper GI hemorrhage: No. of patients with SAE [5]: 1 | MTD (4 days on and days off regimen (N=27), not reached at highest dose): > 330 mg/m^2/d | MTD (7 days on and 7 days off regimen (N=11)): 160 mg/m^2/d | Any SAE: % of patients with SAE (Total (N = 61)): 49.2% | Any SAE: No. of SAEs (Total (N = 61)): 56 | Any SAE: No. of patients with SAE (Total (N = 61)): 30 | Ascites: % of patients with SAE (Total (N = 61)): 4.9% | Ascites: No. of SAEs (Total (N = 61)): 3 | Ascites: No. of patients with SAE (Total (N = 61)): 3 | Cancer Pain: % of patients with SAE (Total (N = 61)): 3.3% | Cancer Pain: No. of SAEs (Total (N = 61)): 2 | Cancer Pain: No. of patients with SAE (Total (N = 61)): 2 | Catheter related Infection: % of patients with SAE (Total (N = 61)): 4.9% | Catheter related Infection: No. of SAEs (Total (N = 61)): 3 | Catheter related Infection: No. of patients with SAE (Total (N = 61)): 3 | Cholangitis: % of patients with SAE (Total (N = 61)): 6.6% | Cholangitis: No. of SAEs (Total (N = 61)): 4 | Cholangitis: No. of patients with SAE (Total (N = 61)): 4 | Cholestasis: % of patients with SAE (Total (N = 61)): 3.3% | Cholestasis: No. of SAEs (Total (N = 61)): 2 | Cholestasis: No. of patients with SAE (Total (N = 61)): 2 | GI hemorrhage: % of patients with SAE (Total (N = 61)): 4.9% | GI hemorrhage: No. of SAEs (Total (N = 61)): 3 | GI hemorrhage: No. of patients with SAE (Total (N = 61)): 3 | Pneumonia: % of patients with SAE (Total (N = 61)): 4.9% | Pneumonia: No. of SAEs (Total (N = 61)): 3 | Pneumonia: No. of patients with SAE (Total (N = 61)): 3 | Upper GI hemorrhage: % of patients with SAE (Total (N = 61)): 3.3% | Upper GI hemorrhage: No. of SAEs (Total (N = 61)): 2 | Upper GI hemorrhage: No. of patients with SAE (Total (N = 61)): 2 | number of patients for whom a DLT was proclaimed (all cohorts, 2 pancreatic carcinoma, 2 colorectal cancer): 4 | patients with TEAEs that led to treatment discontinuation, % (all patients): 23.0% | patients with TEAEs that led to treatment discontinuation, number (all patients): 14 | total number of TEAEs that led to treatment discontinuation (all patients): 23 | patients with TEAEs that led to treatment discontinuation, % (colorectal cancer): 40.0% | patients with TEAEs that led to treatment discontinuation, number (colorectal cancer): 2 | daily dose of MTD (initial 7-days-on and 7-days-off schedule): approx. 4 mg/kg/day | patients with TEAEs that led to treatment discontinuation, % (melanoma): 15.8% | patients with TEAEs that led to treatment discontinuation, number (melanoma): 3 | patients with TEAEs that led to treatment discontinuation, % (pancreatic cancer): 24.3% | patients with TEAEs that led to treatment discontinuation, number (pancreatic cancer): 9
